Assays:
Settings in all cases: 72 h
Caco-2 [1] = experiment: drug sensitivity score (DSS) for viability; higher = more toxic; extreme values may be limits of the assay
Calu-3 [2] = experiment: as above
HepG2 [3] = experiment: as above
Caco-2 [4] = experiment: relative viability EC50 (midpoint between 100% and the lowest measured viability); higher = less toxic
Calu-3 [5] = experiment: as above
HepG2 [6] = experiment: as above
Caco-2 [7] = experiment: cell viability relative to DMSO; higher = less toxic
Calu-3 [8] = experiment: as above
HepG2 [9] = experiment: as above
Vero E6 [10] = experiment: drug sensitivity score (DSS) for viability; higher = more toxic; extreme values may be limits of the assay
U2OS [11] = experiment: as above
U2OS [12] = experiment: relative viability EC50 (midpoint between 100% and the lowest measured viability); higher = less toxic
Vero E6 [13] = experiment: cell viability relative to DMSO; higher = less toxic
U2OS [14] = experiment: as above
Vero E6 [15] = experiment: relative viability EC50 (midpoint between 100% and the lowest measured viability); higher = less toxic

Structure (SMILES) | drug sensitivity score (Caco-2 [1]) | drug sensitivity score (Calu-3 [2]) | drug sensitivity score (HepG2 [3]) | relative viability EC50 (Caco-2 [4]) [µM] | relative viability EC50 (Calu-3 [5]) [µM] | relative viability EC50 (HepG2 [6]) [µM] | cell viability (Caco-2 [7]; 1 nM) [%] | cell viability (Caco-2 [7]; 10 nM) [%] | cell viability (Caco-2 [7]; 100 nM) [%] | cell viability (Caco-2 [7]; 1000 nM) [%] | cell viability (Caco-2 [7]; 10000 nM) [%] | cell viability (Calu-3 [8]; 1 nM) [%] | cell viability (Calu-3 [8]; 10 nM) [%] | cell viability (Calu-3 [8]; 100 nM) [%] | cell viability (Calu-3 [8]; 1000 nM) [%] | cell viability (Calu-3 [8]; 10000 nM) [%] | cell viability (HepG2 [9]; 1 nM) [%] | cell viability (HepG2 [9]; 10 nM) [%] | cell viability (HepG2 [9]; 100 nM) [%] | cell viability (HepG2 [9]; 1000 nM) [%] | cell viability (HepG2 [9]; 10000 nM) [%] | drug sensitivity score (Vero E6 [10]) | drug sensitivity score (U2OS [11]) | relative viability EC50 (U2OS [12]) [µM] | cell viability (Vero E6 [13]; 1 nM) [%] | cell viability (Vero E6 [13]; 10 nM) [%] | cell viability (Vero E6 [13]; 100 nM) [%] | cell viability (Vero E6 [13]; 1000 nM) [%] | cell viability (Vero E6 [13]; 10000 nM) [%] | cell viability (U2OS [14]; 1 nM) [%] | cell viability (U2OS [14]; 10 nM) [%] | cell viability (U2OS [14]; 100 nM) [%] | cell viability (U2OS [14]; 1000 nM) [%] | cell viability (U2OS [14]; 10000 nM) [%] | relative viability EC50 (Vero E6 [15]) [µM]
OCCn1cc(-c2ccc3c(c2)CC/C3=N\O)c(-c2ccncc2)n1 [GDC-0879] | 0 | 0 | 7 | > 10 | > 10 | 1.45 | 98.8 | 89.4 | 94.1 | 101 | 104 | 102 | 94.5 | 95.2 | 107 | 104 | 90.6 | 100 | 87.2 | 74.3 | 25 | – | – | – | – | – | – | – | – | – | – | – | – | – | –
C#Cc1cccc(Nc2ncnc3cc(OCCOC)c(OCCO)cc23)c1 [OSI-420] | 2.3 | 13.1 | 0.6 | > 10 | 0.101 | > 10 | 106 | 101 | 101 | 86.9 | 76.6 | 115 | 103 | 73.8 | 48.6 | 47 | 110 | 102 | 100 | 104 | 76.7 | 4 | 0.3 | > 10 | 103 | 105 | 98.2 | 79 | 65.1 | 96.7 | 99.8 | 97.6 | 94.2 | 85.1 | –
Cc1ncc(C)n2nc([C@@H]3C[C@H]3c3nc4c5cccnc5ccn4c3C)nc12 [PDE10-IN-1] | – | 0 | 0 | – | > 10 | > 10 | – | – | – | – | – | 106 | 98 | 105 | 114 | 117 | 98.7 | 105 | 96.1 | 115 | 98.1 | 0 | 0 | > 10 | 93.5 | 98.2 | 99.6 | 99.3 | 105 | 98.6 | 95.5 | 100 | 95.9 | 97.9 | > 10
Cn1c(Nc2ccc(C(F)(F)F)cc2)nc2cc(Oc3ccnc(-c4ncc(C(F)(F)F)[nH]4)c3)ccc21 [RAF265] | 8.8 | 5.6 | 13.1 | 0.721 | – | 0.435 | 100 | 98.3 | 81.8 | 66.3 | 28.8 | 98 | 91.2 | 94 | 70.9 | 62.2 | 92.1 | 94.7 | 80 | 44.5 | 13.2 | 5.4 | 4.9 | 1.59 | 102 | 99.7 | 99.8 | 77.9 | 51.6 | 94.9 | 102 | 95.3 | 87.3 | 46.5 | –
CC(C)(O)CC(=O)NCCn1ccc2ncnc(Nc3ccc(Oc4cccc(C(F)(F)F)c4)c(Cl)c3)c21 [TAK-285] | 2.9 | 12.6 | 0.3 | – | 0.228 | > 10 | 103 | 90.9 | 92.8 | 85 | 70 | 109 | 93.7 | 76.1 | 48.2 | 31 | 106 | 110 | 113 | 105 | 81.1 | 5.9 | 1 | > 10 | 95.7 | 92.8 | 92.6 | 78.2 | 37.8 | 99.1 | 96.2 | 95 | 95.9 | 80.2 | 1.41
Cn1c(=O)c(F)c(Nc2ccc(I)cc2F)c2c(=O)n(C[C@@H](O)CO)cnc21 [TAK-733] | 11.2 | 21.1 | 33.3 | – | 0.0323 | 0.0047 | 89.4 | 84.6 | 70.7 | 66.4 | 58.7 | 88.5 | 74.4 | 53.3 | 31.8 | 24.6 | 88.1 | 41.2 | 24.8 | 19.5 | 17.2 | 15.2 | 13.8 | 0.435 | 96.9 | 82.9 | 62.3 | 51.6 | 42.2 | 94.5 | 98.7 | 85.9 | 36 | 10.8 | 0.042
O=C(Nc1cc(Oc2cc(F)c(NC(=O)C3(C(=O)Nc4ccc(F)cc4)CC3)cc2F)ccn1)C1CC1 [altiratinib] | 0 | 0 | 12.6 | > 10 | > 10 | 0.25 | 113 | 106 | 104 | 101 | 99.3 | 98.5 | 110 | 97.1 | 109 | 95.5 | 107 | 103 | 94.7 | 35.8 | 58.5 | – | – | – | – | – | – | – | – | – | – | – | – | – | –
COC(=O)C1=C(C)NC(C)=C(C(=O)OC2CCCN(Cc3ccccc3)C2)C1c1cccc([N+](=O)[O-])c1 (centres undefined) [benidipine] | 2.1 | 0.6 | 0.4 | – | > 10 | > 10 | 97.7 | 108 | 101 | 97 | 64.4 | 99 | 98.8 | 106 | 102 | 77.8 | 109 | 101 | 105 | 105 | 80.2 | 0 | 0.5 | > 10 | 102 | 101 | 106 | 99 | 104 | 100 | 102 | 93.8 | 99.6 | 81.7 | > 10
Cc1ccc2c(Br)cc(Br)c(OC(=O)c3ccccc3)c2n1 [broxaldine] | 4.9 | 2 | 5.4 | 2.44 | – | 2.53 | 84.9 | 100 | 84.9 | 93.8 | 29.2 | 103 | 99.8 | 87.6 | 97.4 | 66.5 | 111 | 95.5 | 116 | 93.7 | 19.6 | 2.5 | 4.3 | 2.14 | 109 | 108 | 109 | 98.3 | 54.8 | 98.2 | 102 | 98 | 92.7 | 42.4 | –
Cc1cc(C2CCCCC2)n(O)c(=O)c1 [ciclopirox] | 6.1 | 3.6 | 6.3 | 1.31 | 2.52 | 1.76 | 99.9 | 90.1 | 96 | 77 | 38.7 | 108 | 109 | 94.3 | 95.7 | 44.8 | 91.8 | 96.4 | 95.9 | 85.9 | 27.2 | 2.7 | 4.4 | – | 94.6 | 100 | 90.1 | 89.6 | 63.4 | 105 | 95.2 | 101 | 87.9 | 52.1 | –
N#CCNC(=O)c1ccc(-c2ccnc(Nc3ccc(N4CCOCC4)cc3)n2)cc1 [cyt387] | 1.6 | – | 6.2 | – | – | 2.02 | 99.5 | 103 | 101 | 103 | 61.8 | – | – | – | – | – | 109 | 105 | 101 | 88.7 | 21.6 | 3.4 | 4.1 | 2.6 | 102 | 100 | 96.6 | 94.7 | 52.5 | 99.9 | 107 | 99.4 | 95.6 | 36.6 | –
CCN(CC)S(=O)(=O)c1ccc(C(=O)O)cc1 [etebenecid] | 0 | 0 | 0 | > 10 | > 10 | > 10 | 99.7 | 110 | 107 | 92.5 | 108 | 110 | 93.9 | 106 | 95.2 | 111 | 109 | 110 | 98.4 | 112 | 101 | – | – | – | – | – | – | – | – | – | – | – | – | – | –
CCc1nc(C(N)=O)c(Nc2ccc(N3CCC(N4CCN(C)CC4)CC3)c(OC)c2)nc1NC1CCOCC1 [gilteritinib] | 3.9 | 3 | 7 | – | – | 1.36 | 110 | 98.1 | 102 | 90.2 | 54.4 | 96.4 | 95.8 | 96.3 | 94.1 | 59.8 | 99.2 | 92.1 | 92.4 | 73.5 | 27.9 | 3.3 | 4.1 | 2.12 | 106 | 103 | 100 | 101 | 37.2 | 105 | 102 | 99.1 | 93.1 | 46 | 3.25
Cc1ccccc1C(=O)Nc1ccc(C(=O)N2CCCC(N(C)C)c3ccccc32)cc1 (centres undefined) [mozavaptan] | 4.7 | 1.4 | 3.1 | – | – | 3.1 | 97 | 99.8 | 88.8 | 76.6 | 70.2 | 94.9 | 109 | 95.6 | 105 | 64.9 | 98.2 | 99.5 | 93.3 | 99.5 | 44.3 | 2.7 | 3 | 2.87 | 100 | 103 | 98.3 | 98.4 | 51.6 | 98.1 | 102 | 94.5 | 98 | 48.8 | –
C[C@](O)(COc1ccc(C#N)cc1)C(=O)Nc1ccc(C#N)c(C(F)(F)F)c1 [ostarine] | – | 0 | 0 | – | > 10 | > 10 | – | – | – | – | – | 109 | 98.9 | 99.4 | 95.9 | 97.9 | 107 | 107 | 103 | 109 | 92.8 | – | – | – | – | – | – | – | – | – | – | – | – | – | –
CCCCCCCC/C=C/C(=O)O [trans-2-undecenoic-acid] | 0 | 0 | 0 | > 10 | > 10 | > 10 | 109 | 105 | 108 | 93.5 | 98.9 | 104 | 95.1 | 96.4 | 104 | 108 | 106 | 104 | 101 | 105 | 95.8 | – | 0 | > 10 | – | – | – | – | – | 101 | 97 | 102 | 100 | 99.5 | –

From the supplement of paper PMC13380429
